Values quoted from earlier work as cited in patent publication US20230357095A1, “HYDROGEN NANOBUBBLES INFUSED WATER FOR […] IRRIGATION” (L'Air Liquide, Societe Anonyme pour l'Etude et …, priority 2020, published 2023).
Read-outs that look alike come from different tables or passages of the source.

Details: P=1 bar

Compound: [HH] [hydrogen]
- Saturation concentration of hydrogen in pure water (T=273.1 K): 1.95 mg/L
- Saturation concentration of hydrogen in pure water (T=298.1 K): 1.60 mg/L
